Patent publication US9000047B2, “Compound inhibiting activation of the enzyme Erk 1/2 to be used in the treatment of neurodegenerative illnesses” (Farmalider, S.A., priority 2010, dated 2015)

What was measured:
Hippocampal neurons = test: TUNEL assay for the detection of cellular apoptosis induced by β-amyloid peptide in hippocampal neurons; format: cell-based, mouse
Procedure: In a second in vitro assay, the apoptosis in nerve cells was measured by means of the TUNEL technique described in R. Sgonc et al., Trends Genetics, 1994, 10, 41-42. Apoptosis is the function that controls the death of a biological unit in a programmed manner.
Hippocampal neurons (obtained as described in Example 1) were cultured in 24 well plates (Nunc) at a density of 100,000 cells/well.
After 7 days under culture, β-amyloid peptide 1-40 (Aβ1-40) (Amyloid βProtein (1-40) trifluoroacetate salt, Bachem) (20 μM) was added and the cells were incubated for 72 h.
In order to study the inhibitory effect of the compound of formula (I), the cells were pre-incubated for 15 minutes with said compound at a concentration of 30 μM prior to the addition of the β-amyloid peptide, Aβ1-40.
After 72 h, the cells were fixed and the apoptotic neurons were detected by means of the TUNEL technique (Sgonc, R. et al. (1994) Trends Genetics 10, 41-42) with the in situ “cell death detection” kit, POD (Roche). In said kit, fluorescein-dUTP was used to label the DNA chain cleavage, which makes it possible to directly visualise the staining of the nuclei of the apoptotic neurons in the fluorescence microscope.
Parallel to this, the neuronal nuclei were stained with a specific monoclonal antibody (mouse anti-neuronal nuclei (NeuN) monoclonal antibody, 0.5 μg/ml, Chemicon) and a secondary anti-mouse Cy3 antibody (3.75 μg/ml, Jackson Immunoresearch Laboratories).
The quantification was performed by counting the positive nuclei following the TUNEL staining in 3 random fields and expressed as the % of dead neurons with respect to the total number of neurons in each field. Each inhibitor was assayed in triplicate in 4 independent experiments.
As a negative control, cells cultured for the same period of time, without treatment with the β-amyloid peptide (measurement of baseline spontaneous apoptosis), were used. As a positive control of 100% apoptosis, treatment with DNAse (20 U/ml) was used, following the procedure indicated in the commercial kit.
The value of the positive control (treatment with DNAse) was considered to be 100 and the rest of the measurements were adjusted in relation to this value.

protein kinase Erk 1/2 = test: ELISA assay for the detection of the tPA-induced activation of Erk 1/2 in primary hippocampal neurons; format: cell-based, mouse; details: for normalised Erk 1/2 values, Mean value (arbitrary units): phospho-Erk 1/2 vs total Erk 1/2, 15 minutes pre-incubation with inhibitor, then tPA 20 μg/ml for 1 hour, tPA alone = 1, negative control 0.61
Description: The capacity to inhibit the activation of the protein kinase Erk 1/2 presented by the Compound of formula (I) has been determined by means of the ELISA (Enzyme-Linked Immunoadsorbent Assay) technique, as described in the Examples section.
In the ELISA assays, neurons from primary cultures of hippocampi isolated from mouse embryos (day 16.5 of gestation) were used, following the protocol described by Goslin and Banker (Goslin K and Banker G (1991) Culturing Nerve Cells, MIT Press, Cambridge, Mass.). This culture was used because the hippocampus is the main region affected in Alzheimer's disease and they are non-transformed cells.
10,000 cells/well were seeded in 96 well plates (Nunc) pre-treated with poly-L-Lys (SIGMA) and left under culture for 7 days.
The treatment with tPA was performed by adding it at 20 μg/ml (without changing the medium), for 1 hour. The treatment with the inhibitor, the compound of formula (I), was performed by means of a 15 minutes pre-incubation prior to the addition of tPA, as described above.
Following the treatments, the cells were fixed with methanol at a temperature of −20° C. for 5 min, and an ELISA assay was performed in order to detect the activation of Erk 1/2.
The wells were washed three times with TBST (Tris-buffered saline, 0.1% Triton® X-100) and blocked with 5% horse serum in TBST for 1 h at 37° C. They were once again washed with TBST, […] of the corresponding primary antibody (anti-phospho-Erk 1/2 Cell Signalling, catalogue number 9101, 1/500 or total Erk 1/2, Upstate catalogue number 06-182 1/1000 in 3% bovine serum albumin in TBST) were added and it was incubated overnight at 4° C.
After 4 washings with TBST, 0.45 μg/ml of the secondary alkaline-phospatase-coupled anti-rabbit antibody (DAKO, 1/800 in 3% bovine serum albumin in TBST) were added and it was kept for 1 h at 37° C.
4 washings with TBST were performed and it was developed using 4-methylumbelliferyl phosphate as the substrate (1 mg/ml in 0.2 M triethanolamine at pH 8.5) for 30 min at room temperature in the dark.
The results were quantified by means of fluorescence reading using the Cytofluor 235 fluorometer with an excitation filter of 360/40 and an emission filter of 460/40.
All the treatments were performed in sextuplicate in each experiment: 3 points for phosphorylated Erk 1/2 and 3 points for total Erk 1/2. At least 4 independent experiments were performed.
The following were used as controls: • 1) cells without treatment (negative control), • 2) cells treated with tPA and without an inhibitor (positive control), and • 3) cells incubated only with the secondary antibody and the substrate (negative control in the ELISA technique). […]

[1] = 15 minutes pre-incubation with inhibitor (compound of formula (I) 30 μM), then Aβ1-40 20 μM for 72 h, DNAse positive control = 100, negative control 0.4

Row | Molecule | apoptosis of nerve cells, Mean value (%) of dead neurons (Hippocampal neurons; [1]) [%] | normalised Erk 1/2 values, Mean value (arbitrary units) (protein kinase Erk 1/2) | apoptosis of nerve cells, Mean value (%) of dead neurons (Hippocampal neurons; Aβ1-40 20 μM alone for 72 h, no inhibitor, DNAse positive control = 100) [%] | inhibition of the apoptosis induced by the β-amyloid peptide (in words) (Hippocampal neurons; TUNEL, neurons cultured in vitro) | inhibition of the activation of the protein kinase Erk 1/2 induced by tPA (in words) (protein kinase Erk 1/2; ELISA, hippocampal neurons)
1 | CC12CC3CC(C)(C1)CC(N)(C3)C2 [Memantine, memantine] | 4 | 0.75 |  |  | 
2 | Amyloid βProtein (1-40) trifluoroacetate salt [β-amyloid peptide (Aβ1-40)] |  |  | 83.8 |  | 
3 | NCC12CCC3CC(CC3C1)C2 (centres unmarked) [Compound of formula (I)] | 2.8 | 0.61 |  | efficiently inhibited | effectively inhibits
4 | C[C@]12N[C@H](Cc3ccccc31)c1ccccc12 [Dizocilpine (MK-801), dizocilpine] |  | 0.73 |  |  | 
